Where two headings read alike, the source gives them in different places.
Assays:
[1] = system: carbon tetrachloride (CCl4) induced liver damage; assay: Effect on carbon tetrachloride (CCl4) induced liver damage (liver cell necrosis type); type: in vivo, Male Wistar rats; details: for inhibition in vivo at 0.02 mg/kg: Rattus norvegicus, sc, 24 h, s.c., 20 μg/kg
Method: Effect on carbon tetrachloride (CCl4) induced liver damage (liver cell necrosis type)
Male Wistar rats weighing 180-220 g were used. Rats were dosed intraperitoneally with CCl4 dissolved in olive oil (5%, w/v) at a volume of 500 μl/kg after 18 hr starvation. The compound under test was administered orally (p.o.) or subcutaneously (s.c.) 6 and 12 hr after CCl4 injection in rats and blood was collected after 24 hr. Plasma glutamic oxaloacetic transaminase (GOT) and glutamic pyruvic transaminase (GPT) activities were determined by ultraviolet absorbance methods (optimised method based on the recommendations of the Deutsche Gesellschaft fur Klinische Chemie). The effects of the compounds tested were assessed by the inhibition rate in comparison with controls. Inhibition rate was calculated by the following formula. [formula] The results obtained are shown in the following Tables 1A and 1B for compounds of the general formula: [drawing 10] wherein R, R^1 and --X--Y--Z-- have the meanings indicated.
In Tables 1A, 1B and 2 to 5 hereinafter the dose shown in the amount given at each administration of the compound under test.

[2] = system: alcohol-induced acute liver damage; assay: Effect on alcohol-induced acute liver damage; type: in vivo, Male Wistar rats; details: p.o., 50 μg/kg; blood after 24 hr
Method: Effect on alcohol-induced acute liver damage
Male Wistar rats weighing 180-220 g were used. After the rats had fasted for 18 hr, 50% v/v ethanol solution was given orally to them at a volume of 12 ml/kg. The compound under test was administered orally 30 min before and 2 and 8 hr after administration of ethanol and blood was collected after 24 hr. Plasma GOT and GPT activities were determined in the manner described in Experiment 1. Effects were shown by the inhibition rate compared with controls (calculation by the formula shown in Experiment 1).

[3] = system: D(+)-galactosamine hydrochloride-induced liver damage; assay: Effect on D(+)-galactosamine hydrochloride-induced liver damage (hepatitis type); type: in vivo, Male Wistar rats; details: p.o., 100 μg/kg
Method: Effect on D(+)-galactosamine hydrochloride-induced liver damage (hepatitis type)
Male Wistar rats weighing 180-220 g were used. After the rats had fasted for 18 hr, 250 mg/kg galactosamine hydrochloride was administered to them intraperitoneally three times at 4 hr intervals. The compound under test was administered orally 6, 12, 18, 24, 30, 36, 42 and 48 hr after the dose of D(+)-galactosamine hydrochloride and blood was collected after 36, 48 and 54 hr. Plasma GOT and GPT activities were determined in the manner described in Experiment 1 and the effects were shown by the inhibition rate compared with controls (calculation by the formula shown in Experiment 1).

[4] = system: p-acetoamidophenol-induced liver damage; assay: Effect on p-acetoamidophenol-induced liver damage (liver glutathione decrease type); type: in vivo, Male Wistar rats; details: p.o., 50 μg/kg; blood after 24 hr
Method: Effect on p-acetoamidophenol-induced liver damage (liver glutathione decrease type)
Male Wistar rats weighing 180-220 g were used. After the rats had fasted for 18 hr, p-acetoamidophenol (2.5 g/kg) was given orally to them. The compound under test was administered orally 30 min before and 6 and 12 hr after administration of p-acetoamidophenol and blood was collected after 24 hr. Plasma GOT and GPT activities were determined in the manner described in experiment 1 and the results given in Table 4 show the inhibition rate compared with controls (calculation by the formula shown in Experiment 1)

[5] = system: α-naphthylisothiocyanate-induced liver damage; assay: Effect on α-naphthylisothiocyanate-induced liver damage (cholangioatresia type); type: in vivo, Male Wistar rats; details: p.o., blood after 24 hr
Method: Effect on α-naphthylisothiocyanate-induced liver damage (cholangioatresia type)
Male Wistar rats weighing 190-220 g were used. After rats had fasted for 18 hr, α-naphthylisothiocyanate (ANIT) dissolved in olive oil (1.5% w/v) was given orally to them at 30 mg/kg body weight. The compound under test was administered orally 30 min before and 6 and 12 hr after administration of ANIT and blood was collected after 24 hr. Plasma GOT, GPT and bilirubin activities were determined and the results given in Table 5 show the inhibition rate compared with controls (calculation by the formula shown in Experiment 1).

[6] = system: ethionine-induced acute pancreatitis; assay: Effect on ethionine-induced acute pancreatitis; type: in vivo, Male TCL-ICR mice; details: s.c., 5 μg/kg
Method: Effect on ethionine-induced acute pancreatitis
Male TCL-ICR mice from 4 weeks of age were used. After normal feeding the mice were given a choline-deficient diet (CD diet) for 2 days. Further after having fasted for 24 hr, they were given a choline-deficient diet containing 5% DL-ethionine (CDE diet) for 2 days, counted as days 1 and 2. The mice were then given the CD diet for 1 day and thereafter fed normally. Compound number 6 was administered subcutaneously to them at 5 μg/kg, twice daily, during the CDE diet on days 1 and 2, and then administered in the same manner once daily on days 3, 4 and 5. The effect of the compound under test on the survival rate at day 9 was determined. Further details of the test method appear in Gastroenterology, 78, 777 (1980).

[7] = Acute toxicity test; details: mouse, in vivo; oral, mice observed for 14 days
Method: Male JCL-ICR mice (non SPF mice) from 7 weeks of age were used. The compound under test was dissolved in 5% v/v ethanol containing 0.4% w/v Tween 80 (Tween is a registered trademark) and administered orally to the mice. […] The deaths observed were all within 72 hrs after treatment.

[8] = system: acute galactosamine-induced liver damage; details: Stachur et al; cited from earlier work
[9] = system: carbon tetrachloride-induced liver cell necrosis; details: Stachur et al; cited from earlier work
[10] = system: blood platelet aggregation; details: cited from earlier work
[11] = system: thrombus; details: cited from earlier work
[12] = system: diet-induced acute pancreatitis; details: mice; Manabe et al; cited from earlier work
[13] = system: isolate perfused cat liver; details: Araki et al; cited from earlier work
[14] = system: endotoxin shock; details: dog; Fletcher et al; cited from earlier work
[15] = system: endotoxin-induced lung injury; details: sheep; Demling et al; cited from earlier work
[16] = system: artery; details: cited from earlier work
[17] = system: arachidonic acid-induced blood platelet aggregation; details: human; cited from earlier work

Question: With CCCC1CCC([C@H](O)/C=C/[C@H]2[C@H](O)CC(=O)[C@@H]2CC(=O)CCCCC(=O)OC)C1 (single isomer, unassigned) [Compound 6, 15-(3-Propylcyclopentyl)-16,17,18,19,20-pentanor-6-oxo-PGE1 methyl ester] as the molecule, how does the inhibition in vivo at 0.02 mg/kg ([1]; plasma GOT after 24 hr, read-out: inhibition rate GOT) read?
Answer: The inhibition in vivo at 0.02 mg/kg was 54.1%.

Question: And the inhibition in vivo at 0.02 mg/kg ([1]; plasma GPT after 24 hr, read-out: inhibition rate GPT)?
Answer: The inhibition in vivo at 0.02 mg/kg was 43.2%.

Question: What about the “inhibition rate GOT” value ([1]; p.o., 100 μg/kg, plasma GOT after 24 hr) of the same molecule?
Answer: The value was 71.3%.

Question: What about the “inhibition rate GPT” value ([1]; p.o., 100 μg/kg, plasma GPT after 24 hr) of the same molecule?
Answer: Its value is 67.5%.

Question: And the “inhibition rate GOT” value [2]?
Answer: Its value is 24.5%.

Question: And the “inhibition rate GPT” value [2]?
Answer: The value was 35.8%.

Question: What about the “inhibition rates GOT 36 hr after” value ([3]; 36 hr) of the same molecule?
Answer: The value was 37.2%.

Question: And the “inhibition rates GPT 36 hr after” value ([3]; 36 hr)?
Answer: The value was 29.4%.

Question: And the “inhibition rates GOT 48 hr after” value ([3]; 48 hr)?
Answer: Its value is 46.3%.

Question: What about the “inhibition rates GPT 48 hr after” value ([3]; 48 hr) of the same molecule?
Answer: Its value is 38.2%.

Question: What about the “inhibition rates GOT 54 hr after” value ([3]; 54 hr) of the same molecule?
Answer: The value was 39.1%.

Question: What about the “inhibition rates GPT 54 hr after” value ([3]; 54 hr) of the same molecule?
Answer: The value was 39.1%.

Question: What about the “inhibition GOT” value [4] of the same molecule?
Answer: Its value is 33.2%.

Question: What about the “inhibition GPT” value [4] of the same molecule?
Answer: Its value is 60.4%.

Question: And the “inhibition GOT” value ([5]; 20 μg/kg)?
Answer: The value was 14.6%.

Question: What about the “inhibition GPT” value ([5]; 20 μg/kg) of the same molecule?
Answer: Its value is 5.4%.

Question: What about the inhibition bilirubin ([5]; 20 μg/kg) of the same molecule?
Answer: Its inhibition bilirubin is 18.2%.

Question: What about the “inhibition GOT” value ([5]; 50 μg/kg) of the same molecule?
Answer: The value was 44.6%.

Question: What about the “inhibition GPT” value ([5]; 50 μg/kg) of the same molecule?
Answer: The value was 49.8%.

Question: What about the inhibition bilirubin ([5]; 50 μg/kg) of the same molecule?
Answer: The inhibition bilirubin was 24.9%.

Question: What about the “inhibition GOT” value ([5]; 100 μg/kg) of the same molecule?
Answer: Its value is 67.8%.

Question: What about the “inhibition GPT” value ([5]; 100 μg/kg) of the same molecule?
Answer: The value was 63.6%.

Question: What about the inhibition bilirubin ([5]; 100 μg/kg) of the same molecule?
Answer: The inhibition bilirubin was 50.5%.

Question: What about the “protection against death at day 9 from CDE diet” value [6] of the same molecule?
Answer: Its value is “significant protection against death”.

Question: And the “treated mice dead at day 9” value ([6]; twice daily days 1-2, once daily days 3-5, untreated control 12 of 16 dead)?
Answer: The value was 3 of 16.

Question: And the LD50 at 336 h [7]?
Answer: The LD50 at 336 h was 10 to 20 mg/kg.

Question: Which results are given for CCCCC(C)(C)[C@H](O)/C=C/[C@H]1[C@H](O)CC(=O)[C@@H]1C/C=C\CCCC(=O)O [16,16-dimethyl-PGE2]?
Answer: effect on acute galactosamine-induced liver damage [8]: prevents; effect on carbon tetrachloride-induced liver cell necrosis [9]: prevents

Question: Which results are given for CCCCC[C@H](O)/C=C/[C@H]1[C@H](O)CC(=O)[C@@H]1CCCCCCC(=O)O [PGE1, Prostaglandin E1]?
Answer: effect on blood platelet aggregation [10]: inhibits; effect on thrombus [11]: removes the thrombus and prevents thrombosis

Question: With CCCCC[C@H](O)/C=C/[C@H]1[C@H](O)CC(=O)[C@@H]1C/C=C\CCCC(=O)O [PGE2] as the molecule, how does the “effect against diet-induced acute pancreatitis” value [12] read?
Answer: Its value is “effective”.

Question: Which results are given for CCCCC[C@H](O)/C=C/[C@@H]1[C@H]2C/C(=C/CCCC(=O)O)O[C@H]2C[C@H]1O [PGI2, (5Z,13E)-(9α,11α,15S)-6,9-epoxy-11, 15-dihydroxyprosta-5,13-dienoic acid]?
Answer: effect on hypoxia in the isolate perfused liver [13]: prevents and is useful in treating; effect on endotoxin shock [14]: prevents and is useful in treating; effect on endotoxin-induced lung injury [15]: prevents and is useful in treating; activity on the artery [16]: relaxing activity; effect on arachidonic acid-induced blood platelet aggregation [17]: strongly inhibits

Source: US4464388A, “Use of prostaglandin analogues to treat cytodamage” (priority 1982, dated 1984)
